Publication PMC13401508 (Pharmacological research, 2026)

Experiments:
[1] = tested on: PC3-ML-Luc cells; test: Combination and survival study, PC3-ML-Luc model; assay type: in vivo; conditions: PC3-ML-Luc in athymic nude mice, day 14, IVMT-Rx-4 30 mg/kg and/or Docetaxel 5 mg/kg 3X a week for two weeks
Procedure: (§1) Both syngeneic (C57BL/6) and athymic nude mice were used for survival studies. Tumor cells (RM1-BM-Luc or PC3-ML-Luc) were injected intracardially in a cohort of 40 animals. […] In the combination groups, both regimens were administered 3X a week for two-weeks at the same dose as a single therapy. Animals were imaged periodically and maintained until euthanization was required.
(§2) Fig. 5. […] A and B) RM1-BM-Luc (A) or PC3-ML-Luc (B) cells were implanted I.C. in C57BL/6 and athymic nude mice, respectively. […] BLI images were used to detect bone metastases (the percentage incidence of bone metastases in animals was calculated at a single time point, day 14). Values are presented at the bottom panel of the respective group (red, number of animals positive for metastasis and black, total number of experimental animals). C and D) Animals were kept until mandated euthanasia based on IACUC guidelines, considered as disease associated death. The Kaplan–Meier survival curves were generated using GraphPad in both models as described in (A) and (B), respectively. E and F) Log-rank test was performed and values between different experimental groups are presented.

[2] = tested on: RM1-BM-Luc cells; test: Combination and survival study, RM1-BM-Luc syngeneic model; assay type: in vivo, C57BL/6 mice; conditions: RM1-BM-Luc in C57BL/6, day 14, IVMT-Rx-4 30 mg/kg and/or Docetaxel 5 mg/kg 3X a week for two weeks
Procedure: as §1, §2

[3] = Thermodynamic solubility in PBS, pH 7.4; assay type: physicochemical
[4] = molecular target: T1, PXR (Homo sapiens, UniProt O75469); test: PXR assay using DPX2 cells; assay type: cell-based
T1 construct: expressed in transfected cells; host or cells: DPX2 cells
T1 sequence (O75469 1-434): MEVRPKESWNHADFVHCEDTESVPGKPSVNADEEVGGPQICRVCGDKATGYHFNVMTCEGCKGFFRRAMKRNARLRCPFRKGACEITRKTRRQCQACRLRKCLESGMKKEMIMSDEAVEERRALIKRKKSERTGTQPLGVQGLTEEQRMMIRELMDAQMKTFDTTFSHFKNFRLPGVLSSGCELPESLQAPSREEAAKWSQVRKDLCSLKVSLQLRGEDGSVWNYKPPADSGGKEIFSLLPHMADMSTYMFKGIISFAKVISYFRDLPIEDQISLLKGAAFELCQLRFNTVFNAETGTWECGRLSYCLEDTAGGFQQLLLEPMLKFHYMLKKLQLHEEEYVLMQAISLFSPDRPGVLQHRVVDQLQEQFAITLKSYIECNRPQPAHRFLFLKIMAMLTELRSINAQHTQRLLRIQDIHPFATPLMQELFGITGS
Procedure: DPX2 cells were initially cultured in T-75 flasks and maintained at 37°C in a humidified incubator with 5% CO2 and 95% relative humidity. Cells were allowed to reach 70-80% confluence prior to subculture. Next, cells were transferred to a culture plate and incubated for an additional 24 hours to allow for attachment and recovery prior to treatment. […] Cell viability and luciferase activity were measured using the CellTiter-Fluor™ Cell Viability Assay and One-GloTM Luciferase Assay System, respectively. Luciferase activity was normalized to viable number and fold activation of PXR was calculated using the following equation: […]

[5] = Stability in liver microsomes with NADPH and UDPGA; assay type: in vitro ADME; conditions: all species (human, monkey, dog, rat, mouse), NADPH and UDPGA added
Procedure: Test samples were incubated at 37 °C, and Verapamil was used as a positive control. Samples were drawn from the incubation solution at different timepoints, centrifuged, then diluted with ultra-pure H20 and analyzed via LC-MS/MS. The natural logarithm of the remaining parent drug at each timepoint was plotted against incubation time, and the following equation was used to calculate the in vitro half-life:
in vitro t1/2 = -(0.693/k), where k is the rate constant.

[6] = tested on: Salmonella typhimurium TA98 & TA100; test: Mini-Ames assay; assay type: cell-based
Procedure: The mini-AMES assay was performed in Pharmaron, Inc. following the standard protocol as developed by the in-house scientist. […] The assay was conducted in the presence or absence of the S9 mix along with concurrent negative/solvent control and positive controls.

[7] = tested on: HS5, RWPE-1, C4–2B, PC3-ML, ARCaP-M and RM1-BM cells; test: Colony formation (clonal) assay; assay type: cell-based, human and murine; conditions: 50 μM, six repeated doses over a two-week period, tumor and non-tumor cells
Procedure: 200 cells/well were seeded in triplicate in 6-well plates. […] The colonies were fixed with ice-cold Methanol and stained with 0.5% crystal violet and counted.
Fig. 1. Primary characterization of IVMT-Rx-4. A) Chemical structure (upper panel) and synthesis scheme (lower panel). […] All proteins were extracted, and Western blotting was performed immediately after heating. Quantifications were obtained in the absence (control) or presence of IVMT-Rx-4 and values are presented as percentage of RT (room temperature) normalized for the experimental groups (control, IVMT-Rx-4). SOD (Superoxide dismutase) was used as an endogenous control. […] Colonies were stained with crystal violet and counted (n = 3 ± SD; ns: non-significant). […] Invaded cells were stained with crystal violet. Top panel: representative photograph of invaded cells under different experimental settings. Bottom panel: graphical representation of number of invaded cells/field for different cell lines (n = 3 ± SD; * p < 0.05).

[8] = molecular target: T2, CYP3A4 (Homo sapiens, UniProt P08684); test: Time dependent CYP inhibition (TDI); assay type: in vitro ADME; conditions: human liver microsomes, with or without NADPH
T2 construct: in the presence of human liver microsomes; from tissue; host or cells: human liver microsomes
T2 sequence (P08684 whole entry): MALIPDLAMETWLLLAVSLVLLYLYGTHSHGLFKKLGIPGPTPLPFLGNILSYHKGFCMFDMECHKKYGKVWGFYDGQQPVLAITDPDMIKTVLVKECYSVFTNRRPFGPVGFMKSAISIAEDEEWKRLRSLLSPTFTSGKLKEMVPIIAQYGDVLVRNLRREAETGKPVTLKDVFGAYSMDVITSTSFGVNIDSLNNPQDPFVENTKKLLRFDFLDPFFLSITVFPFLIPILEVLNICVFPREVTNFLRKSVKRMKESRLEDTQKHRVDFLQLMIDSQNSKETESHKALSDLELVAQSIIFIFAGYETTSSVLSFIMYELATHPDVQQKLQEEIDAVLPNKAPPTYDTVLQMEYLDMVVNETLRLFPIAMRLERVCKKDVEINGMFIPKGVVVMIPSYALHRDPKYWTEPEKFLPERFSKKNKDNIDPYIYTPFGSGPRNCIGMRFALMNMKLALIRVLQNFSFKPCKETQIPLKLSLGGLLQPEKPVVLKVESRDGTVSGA
Procedure: Then, the specific CYP3A4 substrate was added, and aliquots were collected at various time points. Samples were then diluted with ultra-pure water and analyzed by LC-MS/MS. Area ratio and remaining Activity (%) were calculated as above and IC50 values was calculated using Excel XLfit 5.3.1.3.

[9] = Log D by shake flask (pH 7.4); assay type: physicochemical; conditions: pH 7.4, octanol/phosphate buffer
Procedure: Sodium Phosphate buffer pH 7.4 (10 mM) was used as the aqueous phase and octanol was used as the organic phase. […] The sealed plate was incubated at 25 °C with continuous agitation at 2000 rpm for 2 hrs. Samples were then separated by centrifugation, diluted 100-fold with a mixture of H20 and acetonitrile containing internal standard, and analyzed via LC-MS/MS. The Log D value was calculated using the following equation: […]

[10] = tested on: Caco-2 cell monolayer; test: Caco-2 bidirectional permeability; assay type: in vitro ADME
Procedure: To prepare the Caco-2 cell monolayer, 50 µL and 25 µL of cell culture medium (Dulbecco’s modified Eagle’s medium, DMEM) were added to each well of the inserts and reservoir, respectively, within a 96-well HTS Transwell plate (Corning, NY, USA). The plate was incubated at 37 °C and 5% CO2 for 1 hr. prior to cell seeding. Caco-2 cells were then diluted to 6.86 x 10^5 cells/mL using culture medium and 50 µL of cell suspension were seeded into the plate, and incubated at 37 °C, 5% CO2, and 95% relative humidity for 14-18 days. During this time, the cells were cultivated with media replacements occurring every other day. Cells were allowed to grow and differentiate and the integrity of the Caco-2 cell monolayer was evaluated by measurement of transepithelial electrical resistance (TEER) using a Millicell Epithelial Volt-Ohm measuring system (Millipore, USA).
Prior to the assay, the established monolayer was washed twice with pre-warmed HBSS and incubated at 37 °C for 30 minutes. A bidirectional permeability assay was performed simultaneously using two different plates as described previously (Supplementary Reference: Cui Y, Desevaux C, Truebenbach I, Sieger P, Klinder K, Long A, Sauer A. A Bidirectional Permeability Assay for beyond Rule of 5 Compounds. Pharmaceutics. 2021 Jul 27;13(8):1146. doi: 10.3390/pharmaceutics13081146. PMID: 34452112; PMCID: PMC8400635.): one assessed permeability from the apical to the basolateral side, while the other assessed from the basolateral to the apical side. […] For apical to basolateral permeability, 108 µL of working solution was loaded into the apical compartment, whereas 308 µL of working solution was added to the basolateral compartment for basolateral to apical permeability. The samples collected from donor and receiver compartment were mixed with 72 µL transport buffer and 240 µL of acetonitrile containing internal standard (IS, 100 nM alprazolam, 200 nM Caffeine and 100 nM tolbutamide), centrifuged at 1000 rpm for 10 minutes. […] In doing so, the following equations were used: […]
Where, Papp is apparent permeability (cm/s x 10^-6), dQ/dt is the rate of drug transport (pmol/second), A is the surface area of the membrane (cm^2), and D0 is the initial donor concentration (nM; pmol/cm^3). (B-A) indicates basolateral to apical permeation, where (A-B) indicates apical to basolateral.

Structure (SMILES) | bone metastases, Incident/Total number tested [1] | bone metastases, Incident/Total number tested [2] | Thermodynamic solubility in PBS, pH 7.4 [3] [mg/ML] | PXR assay [4] | t½ in liver microsomes [5] | Mini-Ames Assay (2-strain option: TA98 & TA100) [6] | cell proliferation (colony formation) [7] | Time-dependent inhibition (TDI), CYP3A4 [8] | Log D by shake flask (pH 7.4) [9] | Caco-2 Efflux ratio ([10]; B-A/A-B) | Caco-2 Bidirectional A-B ([10]; apical to basolateral, 10 µM) [×10⁻⁶ cm/s] | Caco-2 Bidirectional B-A ([10]; basolateral to apical, 10 µM) [×10⁻⁶ cm/s]
CC(=O)O[C@@]12CO[C@@H]1C[C@H](O)[C@@]1(C)C(=O)[C@H](O)C3=C(C)[C@@H](OC(=O)[C@H](O)[C@@H](NC(=O)OC(C)(C)C)c4ccccc4)C[C@@](O)([C@@H](OC(=O)c4ccccc4)[C@H]21)C3(C)C [Docetaxel, reference compound] | 3/8 | 5/8 |  |  |  |  |  |  |  |  |  | 
Cc1cc(NC(=O)c2nc3nc4c(c(=O)n3[nH]2)CCC4)c(C)cc1NC(=O)CCc1nnc(-c2ccccc2)o1 [PDZ1i, reference compound] |  |  | 10 | No induction | Minimal degradation: > 4 hr t½ in all species | Negative | did not inhibit cell proliferation | No TDI | 0.5 | 300 | 0.04 | 11.5
